Measurements reported in US7332476B2, “Pyridyl substituted ketolide antibiotics” (Novartis AG, priority 2003, dated 2008).
Values after ≈ are worked out from the molar mass of the structure shown.

How the values were obtained:
Assay in all cases: MIC, broth microdilution (NCCLS)
[1] = tested on: Streptococcus pneumoniae Stpn_297-749; type: cell-based; design: MIC, strain ID N: unit not given here; details: for MIC, strain ID N: broth microdilution
How it was run: (§1)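 NCCLS broth microdilution with 2-fold serial drug dilutions (methanol stocks diluted in water); inoculum 3×10^5–7×10^5 CFU/ml in CAMHB, with 2-5% lysed horse blood for S. pneumoniae. Incubation 18-24 h at 35° C., ambient air, except S. pneumoniae (5-10% CO2). MIC is lowest concentration preventing visible growth.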

[2] = tested on: Streptococcus pneumoniae Stpn_280-962; type: cell-based; design: MIC, strain ID O: unit not given beside the values; details: for MIC, strain ID O: broth microdilution
How it was run: as §1

[3] = tested on: Haemophilus influenzae Hain_2762; type: cell-based; details: in µg/mL (unit assumed); for MIC, strain ID L: broth microdilution
Description: (§2) Strains. The bacterial isolates listed in Table 8 were cultivated from −70° C. frozen stocks by two consecutive overnight passages (P1, P2) at 35° C. on 5% blood agar (Remel, Lenexa, Kans.). Chocolate agar (Remel) is used for Haemophilus influenzae. H. influenzae and Streptococcus pneumoniae are incubated in 5-10% CO2
(§3) Drug Stock Preparation. To determine the amount of solvent to be used to give the desired final concentration, the formula “weight obtained in mg/final concentration in mg/ml” will be used. It will give the amount of solvent in ml needed to be added to give the desired concentration. For example, if 2.5 mg/ml is the desired concentration and the weight of compound is 13.7 mg, then the amount of solvent to be added is […]. Methanol is used as the solvent to dissolve the test compounds. Further dilution of stock is done in sterile, deionized water. Drug stocks are kept frozen at −70° C., protected from light.
(§4) Susceptibility Testing. MICs are determined by the broth microdilution method in accordance with the NCCLS guidelines. In brief, organism suspensions are adjusted to a 0.5 McFarland standard to yield a final inoculum between 3×10^5 and 7×10^5 CFU/ml. Drug dilutions and inocula are made in sterile, cation adjusted Mueller-Hinton Broth (CAMHB) (Remel) for all but S. pneumoniae [CAMHB with 2-5% lysed horse blood (Remel)] and H. influenzae [Haemophilus Test Medium (Remel)]. An inoculum volume of 100 μl is added to wells containing 100 μl of broth with 2-fold serial dilutions of drug. All inoculated microdilution trays are incubated in ambient air at 35° C. for 18-24 hours, except for S. pneumoniae, and H. influenzae (both at 5-10% CO2).
(§5) Following appropriate incubation, the MIC is determined and the MIC is defined as the lowest concentration of the drug that prevented visible growth. […] Antibacterial activity of representative compounds of the invention were compared against telitromycin.

[4] = tested on: Haemophilus influenzae Hain_960730503-3; type: cell-based; details: in µg/mL (unit assumed); for MIC, strain ID I: broth microdilution
Description: as §2, §3, §4, §5

[5] = tested on: Enterococcus faecalis Enfa_bc 11148-2; type: cell-based; details: in µg/mL (unit assumed); for MIC, strain ID F: broth microdilution
Description: as §2, §3, §4, §5

[6] = tested on: Staphylococcus aureus Stau_33591; type: cell-based; details: unit assumed; for MIC, strain ID B: broth microdilution
Description: as §2, §3, §4, §5

[7] = tested on: Haemophilus influenzae Hain_953460299-3; type: cell-based; details: in µg/mL (unit assumed); for MIC, strain ID K: broth microdilution
Description: as §2, §3, §4, §5

[8] = tested on: Haemophilus influenzae Hain_960820544-3; type: cell-based; details: in µg/mL (unit assumed); for MIC, strain ID J: broth microdilution
Description: as §2, §3, §4, §5

[9] = tested on: Streptococcus pneumoniae Stpn_49619; type: cell-based; design: MIC, strain ID M: unit not given beside the values; details: for MIC, strain ID M: broth microdilution
How it was run: as §1

[10] = tested on: Streptococcus pyogenes Stpy_8668; type: cell-based; design: MIC, strain ID G: unit not given beside the values; details: for MIC, strain ID G: broth microdilution
How it was run: as §1

[11] = tested on: S. pneumoniae Stpn_Erm 6849; type: cell-based, Streptococcus pneumoniae; details: strain ID P; broth microdilution; in µg/mL (unit assumed)
How it was run: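 S. pneumoniae MIC by NCCLS broth microdilution in cation-adjusted Mueller-Hinton broth with 2-5% lysed horse blood, inoculum 3×10^5–7×10^5 CFU/ml, 2-fold drug dilutions. Incubated 18-24 hours at 35° C. in 5-10% CO2; MIC is lowest concentration preventing visible growth.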

[12] = tested on: Staphylococcus aureus Stau_29213; type: cell-based; details: in µg/mL (unit assumed); for MIC, strain ID A: broth microdilution
How it was run: as §1

[13] = tested on: Enterococcus faecalis Enfa_29212; type: cell-based; details: for MIC, strain ID E: broth microdilution
How it was run: as §1

[14] = tested on: Staphylococcus epidermidis Step_14990; type: cell-based; details: in µg/mL (unit assumed); for MIC, strain ID C: broth microdilution
How it was run: as §1

[15] = tested on: Staphylococcus epidermidis Step_f50654; type: cell-based; details: in µg/mL (unit assumed); for MIC, strain ID D: broth microdilution
How it was run: as §1

[16] = tested on: Haemophilus influenzae Hain_49247; type: cell-based; details: unit assumed; for MIC, strain ID H: broth microdilution
[17] = tested on: Streptococcus pneumoniae Stpn_Erm S 4297; type: cell-based; details: for MIC, strain ID Q: broth microdilution
How it was run: as §1

[18] = tested on: Streptococcus pneumoniae Stpn_Mef S 3427; type: cell-based; details: Table 10, Strain ID Q (Table 8): Streptococcus pneumoniae Stpn_Mef S 3427; in µg/mL (unit assumed)
How it was run: as §1

[19] = tested on: Streptococcus pneumoniae Stpn_Mef 5654; type: cell-based; details: Table 10, Strain ID P (Table 8): Streptococcus pneumoniae Stpn_Mef 5654; in µg/mL (unit assumed)
How it was run: as §1

SMILES | MIC, strain ID N [1] | MIC, strain ID O [2] | MIC, strain ID L [3] | MIC, strain ID I [4] | MIC, strain ID F [5] | MIC, strain ID B [6] [µg/mL] | MIC, strain ID K [7] | MIC, strain ID J [8] | MIC, strain ID M [9] | MIC, strain ID G [10] | MIC, strain ID P [11] | MIC, strain ID A [12] | MIC, strain ID E ([13]; in µg/mL (unit assumed)) | MIC, strain ID C [14] | MIC, strain ID D [15] | MIC, strain ID H [16] [µg/mL] | MIC, strain ID E [13] | MIC, strain ID Q ([17]; in µg/mL (unit assumed)) | also measured
C=C[C@]12OC(=O)N(CCCCn3cc(-c4ccc(Cl)nc4)nc3C)[C@@H]1[C@@H](C)C(=O)[C@H](C)C[C@](C)(OC)[C@H](OC1O[C@H](C)C[C@H](N(C)C)[C@H]1O)[C@@H](C)C(=O)[C@@H](C)C(=O)O[C@@H]2CC (some centres unmarked) [XXIX] | =0.05 | =0.05 | 1.56 | 6.25 | 3.13 | > 50 | 12.5 | 6.25 | =0.05 | =0.05 | 0.78 | 0.2 | 0.1 | 0.1 | 0.2 | 6.25 (≈ 7.16 µM) | – | – | MIC, strain ID Q [17]: =0.05
CC[C@H]1OC(=O)[C@H](C)C(=O)[C@H](C)[C@@H](OC2O[C@H](C)C[C@H](N(C)C)[C@H]2O)[C@@](C)(OC)C[C@@H](C)C(=O)[C@H](C)[C@H]2N(CCCCn3cnc(-c4ccc(Cl)nc4)c3)C(=O)O[C@]12CC (some centres unmarked) [XXI] | – | – | – | – | – | – | – | – | – | – | – | – | – | – | – | – | – | – | MIC ([1]; Table 10, Strain ID N (Table 8): Streptococcus pneumoniae Stpn_297-749): =0.05; MIC ([2]; Table 10, Strain ID O (Table 8): Streptococcus pneumoniae Stpn_280-962): =0.05; MIC ([3]; Table 10, Strain ID L (Table 8): Haemophilus influenzae Hain_2762): 0.78; MIC ([4]; Table 10, Strain ID I (Table 8): Haemophilus influenzae Hain_960730503-3): 6.25; MIC ([5]; Table 10, Strain ID F (Table 8): Enterococcus faecalis Enfa_bc 11148-2): 1.56; MIC ([6]; Table 10, Strain ID B (Table 8): Staphylococcus aureus Stau_33591): > 50 µg/mL; MIC ([7]; Table 10, Strain ID K (Table 8): Haemophilus influenzae Hain_953460299-3): 6.25; MIC ([8]; Table 10, Strain ID J (Table 8): Haemophilus influenzae Hain_960820544-3): 6.25; MIC ([9]; Table 10, Strain ID M (Table 8): Streptococcus pneumoniae Stpn_49619): =0.05; MIC ([10]; Table 10, Strain ID G (Table 8): Streptococcus pyogenes Stpy_8668): =0.05; MIC ([12]; Table 10, Strain ID A (Table 8): Staphylococcus aureus Stau_29213): 0.1; MIC ([13]; Table 10, Strain ID E (Table 8): Enterococcus faecalis Enfa_29212): =0.05; MIC ([14]; Table 10, Strain ID C (Table 8): Staphylococcus epidermidis Step_14990): 0.1; MIC ([15]; Table 10, Strain ID D (Table 8): Staphylococcus epidermidis Step_f50654): 0.1; MIC [18]: 0.2; MIC ([16]; Table 10, Strain ID H (Table 8): Haemophilus influenzae Hain_49247): 3.13 µg/mL (≈ 3.64 µM); MIC ([17]; Table 10, Strain ID R (Table 8): Streptococcus pneumoniae Stpn_Erm S 4297, unit assumed): 0.1 µg/mL (≈ 0.116 µM); MIC [19]: 0.78
CC[C@H]1OC(=O)[C@H](C)C(=O)[C@H](C)[C@@H](OC2O[C@H](C)C[C@H](N(C)C)[C@H]2O)[C@@](C)(OC)C[C@@H](C)C(=O)[C@H](C)[C@@H]2[C@@H]1OC(=O)N2CCCCn1cnc(-c2ccc(Cl)nc2)c1 (some centres unmarked) [XXVIII] | =0.05 | =0.05 | 1.56 | 6.25 | 0.4 | > 50 | 12.5 | 6.25 | =0.05 | =0.05 | 0.78 | 0.2 | – | 0.1 | 0.2 | 6.25 (≈ 7.51 µM) | =0.05 | 0.1 | –
C#C[C@]12OC(=O)N(CCCCn3cnc(-c4ccc(OC)nc4)c3)[C@@H]1[C@@H](C)C(=O)[C@H](C)C[C@](C)(OC)[C@H](OC1O[C@H](C)C[C@H](N(C)C)[C@H]1O)[C@@H](C)C(=O)[C@@H](C)C(=O)O[C@@H]2CC (some centres unmarked) [XXXII] | =0.05 | =0.05 | 1.56 | 12.5 | 1.56 | > 50 | 12.5 | 12.5 | =0.05 | =0.05 | 0.78 | 0.2 | 0.1 | 0.1 | 0.2 | 6.25 (≈ 7.34 µM) | – | 0.2 | –
C#C[C@]12OC(=O)N(CCCCn3cnc(-c4ccc(Cl)nc4)c3)[C@@H]1[C@@H](C)C(=O)[C@H](C)C[C@](C)(OC)[C@H](OC1O[C@H](C)C[C@H](N(C)C)[C@H]1O)[C@@H](C)C(=O)[C@@H](C)C(=O)O[C@@H]2CC (some centres unmarked) [XXXIV] | =0.05 | =0.05 | 0.78 | 6.25 | 0.4 | > 50 | 6.25 | 6.25 | =0.05 | =0.05 | 0.4 | 0.1 | – | 0.1 | 0.1 | 3.13 (≈ 3.65 µM) | =0.05 | 0.1 | –
